Our source for the EC50 values is patent publication US9278915B2, “Agonists of GPR40” (CONNEXIOS LIFE SCIENCES PVT LTD, priority 2010, dated 2016).

The target in this assay is T1, hGPR40 (Homo sapiens, UniProt O14842).
T1 construct: expressed in transfected cells
The experiment in a line: Calcium flux assay to detect GPR40 activation. The class given is cell-based. The settings on record: CHO-K cells stably expressing hGPR40; Fluo-4 NW; read for 4 min at 5 s intervals. As to the method:
Biological Activity Calium Flux Assay to Detect GPR40 Activation: CHO-K cells stably expressing hGPR40 were selected in a media containing Neomycin/G418. The cells were plated at a concentration of 20,000 cells per well in black 96-well clear bottom tissue culture treated plates. The cells were cultured for 24 h at 37° C. in a humidified 5% CO2 air environment to allow for protein expression. The next day, after removal of media from wells, Fluo-4 NW (Invitrogen) is added at 100 ul/well and the cells were incubated for 30 min at 37° C. and for a further 30 min at RT. All test compounds were diluted to appropriate concentrations in HEPES buffer. Compounds were added to the cells and the wells were read in the BioTEK synergy reader and readings were taken for 4 min with an interval of 5 s.

T1 sequence (O14842 whole entry): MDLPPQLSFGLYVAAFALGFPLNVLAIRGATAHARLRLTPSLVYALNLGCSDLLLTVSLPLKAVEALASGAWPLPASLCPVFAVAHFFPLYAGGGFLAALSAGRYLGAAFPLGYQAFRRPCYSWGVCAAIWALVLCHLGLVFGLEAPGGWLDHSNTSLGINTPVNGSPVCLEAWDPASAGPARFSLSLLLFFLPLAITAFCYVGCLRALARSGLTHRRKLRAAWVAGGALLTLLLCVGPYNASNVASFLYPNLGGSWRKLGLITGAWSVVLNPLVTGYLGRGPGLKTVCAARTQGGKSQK

The EC50 is the concentration needed to bring the measured effect to its halfway point. As to `CO/N=C(\COc1ccc(COc2ccc(CCC(=O)O)c(F)c2)cc1)c1ccccc1` [Compound 71, Sodium 3-{2-fluoro-4-[(4-{[(2Z)-2-(methoxyimino)-2-phenylethyl]oxy}benzyl)oxy]phenyl}propanoate], the half-maximal effective concentration (EC50) was above 100 nM.
In the case of `CO/N=C(\COc1ccc(COc2ccc(/C(CC(=O)O)=N\OC)cc2)cc1)c1ccccc1` [Compound 68, (3E,3Z)-3-(Methoxyimino)-3-{4-[(4-{[(2Z)-2-(methoxyimino)-2-phenylethyl]oxy}benzyl)oxy]phenyl}propanoic acid], the half-maximal effective concentration (EC50) was above 100 nM.
Turning to `O=C(O)CCc1ccc(NCc2cccc(/C(=N\OCC(F)(F)F)c3ccccc3)c2)cc1` [Compound 9, 3-{4-[(3-{(E,Z)-Phenyl[(2,2,2-trifluoroethoxy)imino]methyl}benzyl)amino]phenyl}propanoic acid], the concentration for a half-maximal effect (EC50) is above 100 nM.
Regarding `CO/N=C(\COc1ccc(COc2ccc(CCC(=O)O)c(C#N)c2)cc1)c1ccccc1` [Compound 42, 3-{2-Cyano-4-[(4-{[(2E,2Z)-2-(methoxyimino)-2-phenylethyl]oxy}benzyl)oxy]phenyl}propanoic acid], the EC50 was above 100 nM.
Next, `CO/N=C(/COc1ccc(COc2ccc(C(C#N)CC(=O)O)cc2)cc1F)c1ccccc1` (racemic) [Compound 21, 3-Cyano-3-{4-[(3-fluoro-4-{[(2E,2Z)-2-(methoxyimino)-2-phenylethyl]oxy}benzyl)oxy]phenyl}propanoic acid]: 10 to 100 nM.
For `CO/N=C(\COc1ccc(COc2ccc(/C=C/C(=O)O)c(-c3cc(C)on3)c2)cc1)c1ccccc1` [Compound 97, (2E,2Z)-3-{4-[(4-{[(2Z)-2-(Methoxyimino)-2-phenylethyl]oxy}benzyl)oxy]-2-(5-methyl-1,2-oxazol-3-yl)phenyl}prop-2-enoic acid], the EC50 is above 100 nM.
As for `CON=C(COc1ccc(COc2ccc(C(C#N)CC(=O)O)cc2)cc1)c1ccc(C#N)cc1` (mixture of isomers) [Compound 49, Sodium 3-cyano-3-{4-[(4-{[(2E,2Z)-2-(4-cyanophenyl)-2-(methoxyimino)ethyl]oxy}benzyl)oxy]phenyl}propanoate], the EC50 is below 10 nM.
As to `O=C(O)CCc1ccc(OCc2ccc(OC/C(=N\OCc3ccccc3)c3ccccc3)cc2)cc1` [Compound 108, 3-(4-{[4-({(2E,2Z)-2-[(Benzyloxy)imino]-2-phenylethyl}oxy)benzyl]oxy}phenyl) propanoic acid], the EC50 fell in the range of 10 to 100 nM.
As for `CO/N=C(\COc1cccc(CNc2ccc(CCC(=O)O)cc2)c1)c1ccccc1` [Compound 5], the figure is above 100 nM; as for `CO/N=C(\COc1ccc(COc2ccc(CCC(=O)O)c(OCC3CC3)c2)cc1)c1ccccc1` [Compound 58, 3-{2-(Cyclopropylmethoxy)-4-[(4-{[(2Z)-2-(methoxyimino)-2-phenylethyl]oxy}benzyl)oxy]phenyl}propanoic acid], above 100 nM.
Turning to `CO/N=C(\COc1ccc(COc2ccc(CCC(=O)O)c(OCC#N)c2)cc1)c1ccccc1` [Compound 88, 3-{2-(Cyanomethoxy)-4-[(4-{[(2Z)-2-(methoxyimino)-2-phenylethyl]oxy}benzyl)oxy]phenyl}propanoic acid], the EC50 is above 100 nM.
Consider `CO/N=C(\COc1ccc(COc2ccc(C(O)CC(=O)O)cc2)cc1)c1ccccc1` (centres unmarked) [Compound 119, 3-Hydroxy-3-{4-[(4-{[(2Z)-2-(methoxyimino)-2-phenylethyl]oxy}benzyl)oxy]phenyl}propanoic acid], for which the EC50 is above 100 nM.
Next, `CON=C(COc1ccc(CNc2ccc(C3CC3C(=O)O)cc2)cc1)c1ccccc1` (mixture of isomers) [Compound 48, Sodium 2-{4-[(4-{[(2E,2Z)-2-(methoxyimino)-2-phenylethyl]oxy}benzyl)amino]phenyl}cyclopropanecarboxylate]: 10 to 100 nM.
With `N#CC(CC(=O)O)c1ccc(OCc2ccc(OC/C(=N\Oc3ccccc3)c3ccccc3)cc2)cc1` (centres unmarked) [Compound 107, 3-Cyano-3-{4-[(4-{[(2E,2Z)-2-(phenoxyimino)-2-phenylethyl]oxy}benzyl)oxy]phenyl}propanoic acid], the half-maximal effective concentration (EC50) fell in the range of 10 to 100 nM.
For the compound `CO/N=C(\COc1ccc(COc2ccc(C3CC3C(=O)O)cc2)cc1)c1ccc(C#N)cc1` (single isomer, unassigned) [Compound 80, Sodium 2-{4-[(4-{[(2Z)-2-(4-cyanophenyl)-2-(methoxyimino)ethyl]oxy}benzyl)oxy]phenyl}cyclopropanecarboxylate], the EC50 was below 10 nM.
Take `CO/N=C(\COc1ccc(COc2ccc(C(C#N)CC(=O)O)cc2)cc1OC)c1ccccc1` (centres unmarked) [Compound 26, 3-Cyano-3-{4-[(3-methoxy-4-{[(2Z)-2-(methoxyimino)-2-phenylethyl]oxy}benzyl)oxy]phenyl}propanoic acid]: the concentration for a half-maximal effect (EC50) was 10 to 100 nM.
Turning to `CO/N=C(\COc1ccc(CNc2ccc(CCC(=O)O)cc2)cc1)c1ccccc1` [Compound 4, 3-{4-[(4-{[(2Z)-2-(Methoxyimino)-2-phenylethyl]oxy}benzyl)amino]phenyl}propanoic acid], the EC50 is 10 to 100 nM.
As for `CO/N=C(\COc1ccc(COc2ccc(CCC(=O)O)c(F)c2)cc1OC)c1ccccc1` [Compound 41, 3-{2-Fluoro-4-[(3-methoxy-4-{[(2E,2Z)-2-(methoxyimino)-2-phenylethyl]oxy}benzyl)oxy]phenyl}propanoic acid], the figure is 10 to 100 nM.
`CO/N=C(/COc1ccc(COc2ccc(C(C#N)CC(=O)O)cc2)c(F)c1)c1ccccc1` (racemic) [Compound 23, 3-Cyano-3-{4-[(2-fluoro-4-{[(2E,2Z)-2-(methoxyimino)-2-phenylethyl]oxy}benzyl)oxy]phenyl}propanoic acid]: the EC50 was below 10 nM.
In the case of `CO/N=C(\COc1ccc(COc2ccc(C(C#N)CC(=O)O)cc2)cc1)c1ccc(F)cc1` (centres unmarked) [Compound 34, 3-Cyano-3-{4-[(4-{[(2Z)-2-(4-fluorophenyl)-2-(methoxyimino)ethyl]oxy}benzyl)oxy]phenyl}propanoic acid], the EC50 is below 10 nM.
Regarding `CCOC(=O)CCc1ccc(OCc2ccc(OC/C(=N\OC)c3ccccc3)cc2)cc1OCC(=O)O` [Compound 90, {2-(3-Ethoxy-3-oxopropyl)-5-[(4-{[(2E,2Z)-2-(methoxyimino)-2-phenylethyl]oxy}benzyl)oxy]phenoxy}acetic acid], the EC50 is above 100 nM.
As for `CO/N=C(\COc1ccc(COc2ccc(C3CC3C(=O)O)cc2)cc1)c1ccc(OC)cc1` (centres unmarked) [Compound 57, Sodium 2-{4-[(4-{[(2Z)-2-(methoxyimino)-2-(4-methoxyphenyl)ethyl]oxy}benzyl)oxy]phenyl}cyclopropanecarboxylate], the figure is 10 to 100 nM.
As for `CO/N=C(/COc1ccc(COc2ccc(C(C#N)CC(=O)O)cc2)cc1)c1ccc(OC)cc1` (racemic) [Compound 25, 3-Cyano-3-{4-[(4-{[(2E,2Z)-2-(methoxyimino)-2-(4-methoxyphenyl)ethyl]oxy}benzyl)oxy]phenyl}propanoic acid], the figure is below 10 nM.
For the compound `CO/N=C(\COc1ccc(COc2ccc(CCC(=O)O)c(OC)c2)cc1)c1ccc(C#N)cc1` [Compound 43, 3-{4-[(4-{[(2Z)-2-(4-Cyanophenyl)-2-(methoxyimino)ethyl]oxy}benzyl)oxy]-2-methoxyphenyl}propanoic acid], the EC50 is above 100 nM.
Turning to `CO/N=C(/COc1ccc(COc2ccc(-c3c(C(=O)O)noc3C)cc2)cc1)c1ccccc1` [Compound 32, 4-{4-[(4-{[(2E,2Z)-2-(Methoxyimino)-2-phenylethyl]oxy}benzyl)oxy]phenyl}-5-methyl-1,2-oxazole-3-carboxylic acid], the concentration for a half-maximal effect (EC50) is above 100 nM.
For `CON=C(COCC1CCC(COc2ccc(CCC(=O)O)cc2)CC1)c1ccccc1` (centres unmarked) [Compound 113, 3-(4-{[4-({[(2E,2Z)-2-(Methoxyimino)-2-phenylethyl]oxy}methyl)cyclohexyl]methoxy}phenyl)propanoicacid], the EC50 is above 100 nM.
As to `CO/N=C(\COc1ccc(COc2ccc(C(C#N)CC(=O)O)cc2)cc1)c1ccccc1` (single isomer, unassigned; (+)) [Compound 74, (+)-3-Cyano-3-{4-[(4-{[(2Z)-2-(methoxyimino)-2-phenylethyl]oxy}benzyl)oxy]phenyl}propanoic acid], the EC50 is above 100 nM.
Next, `CO/N=C(\COc1ccc(COc2ccc(C(C#N)CC(=O)O)cc2)cc1F)c1ccccc1` (centres unmarked) [Compound 50, Sodium 3-cyano-3-{4-[(3-fluoro-4-{[(2Z)-2-(methoxyimino)-2-phenylethyl]oxy}benzyl)oxy]phenyl}propanoate]: below 10 nM; `CO/N=C(/c1ccccc1)c1ccc(CNc2ccc(CCC(=O)O)cc2)cc1` [Compound 3, 3-[4-({4-[(E,Z)-(Methoxyimino)(phenyl)methyl]benzyl}amino)phenyl]propanoic acid]: above 100 nM.
Next, `CO/N=C(\COc1ccc(COc2ccc(C(C#N)CC(=O)O)cc2)cc1)c1ccccc1` (single isomer, unassigned; (-)) [Compound 82, (−)-Sodium 3-cyano-3-{4-[(4-{[(2E,2Z)-2-(methoxyimino)-2-phenylethyl]oxy}benzyl)oxy]phenyl}propanoate]: below 10 nM; `CO/N=C(\COc1ccc(COc2ccc(C3CC3C(=O)O)cc2)cc1)c1ccc(OC)cc1` (centres unmarked) [Compound 46, 2-{4-[(4-{[(2Z)-2-(Methoxyimino)-2-(4-methoxyphenyl)ethyl]oxy}benzyl)oxy]phenyl}cyclopropanecarboxylic acid]: 10 to 100 nM.
Consider `N#CC(CC(=O)O)c1ccc(OCc2ccc(OC/C(=N\O)c3ccccc3)cc2)cc1` (centres unmarked) [Compound 109, 3-Cyano-3-{4-[(4-{[(2Z)-2-(hydroxyimino)-2-phenylethyl]oxy}benzyl)oxy]phenyl}propanoic acid], for which the EC50 was above 100 nM.
